# Data from patent publication US5629309A, “2-substituted indane-2-mercaptoacetylamide disulfide derivatives useful as inhibitors of enkephalinase and ACE” (Merrell Pharmaceuticals Inc., priority 1995, dated 1997).
# Target: T1, ACE, rat kidney preparations (Rattus norvegicus, UniProt P47820)
# T1 construct: either compound- or vehicle-dosed rat kidney preparations; from tissue; host or cells: kidney of male Sprague-Dawley rats
# T1 sequence (P47820 36-1313): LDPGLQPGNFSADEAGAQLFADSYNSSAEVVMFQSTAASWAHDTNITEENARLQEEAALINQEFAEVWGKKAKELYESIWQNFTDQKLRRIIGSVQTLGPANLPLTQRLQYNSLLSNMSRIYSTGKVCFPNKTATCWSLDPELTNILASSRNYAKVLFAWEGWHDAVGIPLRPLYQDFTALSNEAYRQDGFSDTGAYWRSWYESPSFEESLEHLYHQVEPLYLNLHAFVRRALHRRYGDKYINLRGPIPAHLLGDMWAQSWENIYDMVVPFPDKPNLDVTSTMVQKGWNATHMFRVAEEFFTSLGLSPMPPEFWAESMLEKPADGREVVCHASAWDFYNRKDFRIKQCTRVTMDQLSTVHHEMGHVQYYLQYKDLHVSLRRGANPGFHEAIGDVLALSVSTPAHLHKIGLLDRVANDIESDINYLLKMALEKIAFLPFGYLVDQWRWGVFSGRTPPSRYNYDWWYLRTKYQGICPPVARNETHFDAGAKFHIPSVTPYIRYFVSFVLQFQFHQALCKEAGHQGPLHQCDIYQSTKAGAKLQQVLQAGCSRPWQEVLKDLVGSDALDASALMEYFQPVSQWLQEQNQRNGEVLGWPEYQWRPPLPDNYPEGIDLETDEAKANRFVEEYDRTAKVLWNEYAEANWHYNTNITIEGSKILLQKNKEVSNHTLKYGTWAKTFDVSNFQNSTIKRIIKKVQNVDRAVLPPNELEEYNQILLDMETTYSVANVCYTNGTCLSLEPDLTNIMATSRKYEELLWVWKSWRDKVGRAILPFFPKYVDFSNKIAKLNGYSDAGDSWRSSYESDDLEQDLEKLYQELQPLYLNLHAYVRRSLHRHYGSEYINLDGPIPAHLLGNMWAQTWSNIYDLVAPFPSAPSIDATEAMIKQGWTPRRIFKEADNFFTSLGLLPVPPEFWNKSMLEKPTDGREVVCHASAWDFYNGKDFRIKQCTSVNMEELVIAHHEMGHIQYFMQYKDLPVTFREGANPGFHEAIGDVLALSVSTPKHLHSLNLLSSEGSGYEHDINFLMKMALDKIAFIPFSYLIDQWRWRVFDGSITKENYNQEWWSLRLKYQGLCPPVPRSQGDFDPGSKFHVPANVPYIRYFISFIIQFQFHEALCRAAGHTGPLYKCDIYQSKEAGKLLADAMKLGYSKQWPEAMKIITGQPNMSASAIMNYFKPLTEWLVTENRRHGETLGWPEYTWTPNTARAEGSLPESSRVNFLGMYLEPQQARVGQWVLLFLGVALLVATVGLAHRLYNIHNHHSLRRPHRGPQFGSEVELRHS
# Assay: Radiometric ACE assay with tritiated hippuryl-glycyl-glycine, rat kidney preparations
# Type: biochemical
# Conditions: 1 μM enalaprilat; compound- or vehicle-dosed rat kidney preparations
structure (smiles),measurement,value
C[C@H](N[C@@H](CCc1ccccc1)C(=O)O)C(=O)N1CCC[C@H]1C(=O)O [enalaprilat],inhibition of radioactive product formation,Complete inhibition
